Earlier results, collected in US7615533B2, “TPO peptide compounds for treatment of anemia” (Janssen Pharmaceutica N.V., priority 2004, dated 2009).

Tested on: rhesus monkeys exposed to 5 Gy total body irradiation
Conditions: 5 Gy total body irradiation (300-kV x-rays); cited from earlier work

Substance: human recombinant TPO: human recombinant thrombopoietin, glycoprotein; comparator in the reporter assay and cited in the background
- reticulocyte regeneration initiated earlier than in placebo-treated animals: 10 days
